Data taken from US9145375B2, “Quinazolinone compounds” (PRANA BIOTECHNOLOGY LIMITED, priority 2008, dated 2015).
Converted amounts (≈) assume the structure as drawn. “And” between values parts separate entries of the source, which are not always exact repeats. Identical values can stand only once.

What was measured:
[1] = Metabolism in hepatocytes (predicted EH), dog; format: in vitro ADME
[2] = Equilibrium Solubility (pH 2-7); format: physicochemical; conditions: for solubility thermodynamic: aqueous buffer, thermodynamic from solid
[3] = tested on: MPTP induced cell death in the SN; experiment: Parkinson's disease in vivo: MPTP model; design: species or system mouse; conditions: MPTP mice; for Behaviour Pole Test, % (SSV = 0%) / Behaviour Pole Test, value ± SD: 30 mg/kg; for SN cell counts % of SSV / SN cell counts (cells +/− SD): test drug 30 mg/kg daily by oral gavage, several experiments
Description: Parkinson's Disease In Vivo Technique: MPTP
MPTP (1-methyl 4-phenyl 1,2,3,6-tetrahydropyridine) is a chemical that is related to the opioid analgesic drugs. MPTP causes Parkinsonian side-effects. This occurs when MPTP is metabolized into MPP+, which kills neurons in a part of the brain called the substantia nigra. MPP+ interferes with mitochondria metabolism which leads to cell death and causes the build up of free radicals, toxic molecules that contribute further to cell destruction. MPTP has abilities to effect neuronal death in dopaminergic cells. Such effects lead to gross depletion of dopaminergic neurons which has severe implications on cortical control of complex movements.
General Experimental Design
Determining that MPTP Causes Continued Cell Death
Control (non tg) and transgenic mice receive five intraperitoneal injections of MPTP-HCl (23 gauge needle, 20 mg\kg of free base; Sigma, St. Louis, Mo., USA) dissolved in sterile 0.9% saline at 2-h interval in 1 day. Control animals receive five intraperitoneal injections of 0.9% saline. […] 20 C57BL6, 10 control and 10 hA53T tg are used to establish the precise dose of toxin at 2 weeks. Animals are allowed to recover for 1 week, 2 weeks, 1 month, 12, months and 18 months. The animals are killed and the brains removed for histological (stereological) and biochemical analysis.
Determining Whether Test Drug Reduces MPTP Induced Cell Death
Animals are treated as described above. They are treated with test drug 2 days after MPTP injection until death. Test drug is given by oral gavage at a daily dosage of 30 mg/kg. The time of killing the animals is dependant on the analysis of Experiment 1, normally one month or less.
Drugs are administered by oral gavage, at a daily dosage of 30 mg/kg.
Mice are assessed at prior to killing the mice for histological analysis.
Motor coordination and strength are assessed using the rotarod. The rotarod consists of a plastic rotating rod of 3.6 cm axial diameter partitioned by metal disks into five sections to allow the testing of multiple mice simultaneously. Mice are trained on two sessions where the rotation speed is ramped from 0-30 rpm over 5 min and one training session where rotation is a constant 16 rpm for 5 min. Within two days of training, animals are formally assessed on the rotarod rotating at 16 rpm for a maximum of 3 min: the time to fall on this single test is the recorded data point.
The pole is a 700 mm long, 5 mm diameter, wooden rod. The rod is supported at its base and held vertical. The total walking distance for the mice is 550 mm. The time taken for the mouse to descend the pole is measured with a maximum time of 120 s. If a mouse falls, the time is scored as 120 s.

CYP1A2 = biological target: T1, CYP1A2 (Homo sapiens, UniProt P05177); experiment: CYP450 inhibition, specific substrate approach in human liver microsomes: CYP1A2; format: in vitro ADME
T1 construct: using a specific substrate approach in human liver microsomes; from tissue; host or cells: human liver microsomes
T1 sequence (P05177 1-516): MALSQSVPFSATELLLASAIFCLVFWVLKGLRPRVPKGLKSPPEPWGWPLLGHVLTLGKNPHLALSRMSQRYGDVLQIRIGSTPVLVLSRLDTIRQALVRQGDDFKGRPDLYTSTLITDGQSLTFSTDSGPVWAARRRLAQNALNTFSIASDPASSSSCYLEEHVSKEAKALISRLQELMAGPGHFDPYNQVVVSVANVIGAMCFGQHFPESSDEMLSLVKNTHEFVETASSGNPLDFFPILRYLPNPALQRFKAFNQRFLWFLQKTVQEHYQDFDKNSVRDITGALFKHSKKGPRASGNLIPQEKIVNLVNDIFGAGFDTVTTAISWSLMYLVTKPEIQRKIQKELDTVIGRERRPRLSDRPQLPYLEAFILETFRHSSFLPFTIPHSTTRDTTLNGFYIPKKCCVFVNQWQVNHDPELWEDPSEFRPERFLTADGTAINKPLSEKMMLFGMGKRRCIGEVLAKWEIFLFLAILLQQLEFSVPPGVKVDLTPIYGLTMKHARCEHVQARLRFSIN
Procedure: CYP450 Isoform Inhibition Using a Specific Substrate Approach
The present study is a “Tier 2” screen to assess potential enzyme inhibition at a test compound concentration of 20 μM using a specific substrate approach in human liver microsomes.
The substrate specific enzyme inhibition study relies on the formation of a metabolite that is mediated by a specific CYP450 isoform using human liver microsomes. In the current study, the following reactions were monitored to assess interactions with specific CYP450 isoforms. A known inhibitor of each isoform was included in each assay as a positive control. The following IC50 values have been reported in the literature using equivalent assay conditions for each CYP450 isoform:
The reaction was initiated by the addition of an NADPH-regenerating system and was quenched by the addition of acetonitrile prior to determining the concentration (and apparent rate of formation) of the specific metabolite by LC/MS.
The IC50 was deemed to be the concentration at which there was a 50% reduction in the amount of metabolite formed, relative to the maximal extent of formation.

Fe-DA = experiment: H2O2 assay, Fe-DA (% cf. Fe 0.4 μM/DA 50 μM); format: biochemical; conditions: Fe 0.4 μM/DA 50 μM
Procedure: (§1) This fluoresence assay evaluates the ability of a test compound to inhibit the generation of hydrogen peroxide (H2O2) by iron in the presence of a reducing substrate such as ascorbic acid. In the assay, iron in the form of FeCl3 or copper is allowed to react with ascorbic acid by incubating for 1 hr at 37° C. in the presence of the fluorescing compound DCF and horseradish peroxidase. H2O2 generated by the system is assessed by measuring the specific fluorescence profile at the excitation and emission wavelengths of 485 and 530 nm respectively, in the presence of increasing concentrations of test compound. Test compounds are ranked according to their capacity to inhibit H2O2 generated by the system where lower values reflect greater ability to inhibit H2O2 production.

[4] = tested on: generation of hydrogen peroxide (H2O2) by iron; experiment: H2O2 Inhibition Assay; format: biochemical
Procedure: Assay 1. H2O2 Inhibition Assay.
as §1

| SMILES | Metabolism (Predicted EH), Hepatocytes: Dog [1] | pH dependence of equilibrium solubility [2] | solubility thermodynamic [2] | Behaviour Pole Test, % (SSV = 0%) [3] | Behaviour Pole Test, value ± SD [3] | SN cell counts % of SSV [3] | SN cell counts (cells +/− SD) [3] | IC50 (CYP1A2) | Fe-DA % cf. Fe 0.4 μM/DA 50 μM (Fe-DA) | IC50 [4] |
| --- | --- | --- | --- | --- | --- | --- | --- | --- | --- | --- |
| CNCc1nc2c(O)c(Cl)cc(Cl)c2c(=O)n1C [Compound F4161] | Dog = 0.56 | pH dependent | 196 to 746 µg/mL (≈ 0.68 to 2.59 mM) | 2.55% | (2.85 ± 1.63) | 28.05% | (2781.33 ± 382.88) cells |  |  |  |
| CN(C)Cc1nc2c(O)c(Cl)cc(Cl)c2c(=O)n1CC1CC1 [Compound F4267] | Dog = 0.39 | pH dependent | 393 to 1700 µg/mL (≈ 1.15 to 4.98 mM) |  |  | 53.94% and 53.77% | 3331.96 ± 262.97 cells and 4315.11 ± 310.21 cells | 15.3 µM |  |  |
| CCn1c(CN(C)C)nc2c(O)c(Cl)cc(Cl)c2c1=O.Cl [Compound F4268] | Dog = 0.49 | not pH dependent | 3810 to 10200 µg/mL | −25.38% | (3.66 ± 1.87) | 40.35% and 74.83% and 64.00% | 3797.33 ± 562.78 cells and 3065 ± 387 cells and 3163.87 ± 611.27 cells | ~20 µM |  |  |
| CN(C)Cc1nc2c(O)c(Cl)cc(Cl)c2c(=O)n1C [Compound F4269, 5,7-Dichloro-2-(dimethylamino)methyl-8-hydroxy-3-methylquinazolin-4(3H)-one] | Dog = 0.54 | pH dependent | 166 to 2670 µg/mL (≈ 0.549 to 8.84 mM) |  |  | 26.76% | 3557.33 ± 556.55 cells | 24.1 µM |  |  |
| CCN(CC)Cc1nc2c(O)c(Cl)cc(Cl)c2c(=O)n1CC1CC1 [Compound F4385] | Dog = 0.37 | pH dependent | 683 to 1660 µg/mL (≈ 1.84 to 4.49 mM) |  |  | 31.49% | 3690.00 ± 919.10 cells | 13.4 µM | 86% | 0.91 µM |
| C#CCN(C)Cc1nc2c(O)c(Cl)cc(Cl)c2c(=O)n1CC1CC1 [Compound F4387] |  |  |  |  |  |  |  |  | 77% | 0.46 µM |
| Br.CCn1c(CNC)nc2c(O)c(Cl)cc(Cl)c2c1=O [Compound F4486] |  |  |  | 38.46% | (1.81 ± 0.80) | 24.11% | 2647.97 ± 814.44 cells |  | 56% | 1.93 µM |
| CCNCc1nc2c(O)c(Cl)cc(Cl)c2c(=O)n1CC [Compound F4495] | Dog = 0.56 | not pH dependent | 2230 to 4730 µg/mL (≈ 7.04 to 14.9 mM) | 18.32% | (2.26 ± 0.82) | 45.45% and 50.33% |  | 13.7 µM | 45% | 0.77 µM |
| Br.CCNCc1nc2c(O)c(Cl)cc(Cl)c2c(=O)n1C [Compound F4496] | Dog = 0.66 | not pH dependent | 224 to 1500 µg/mL | 38.61% | (1.79 ± 1.13) |  |  | 22 µM | 45% | 0.83 µM |
